Laboratory results taken from patent publication US20200187504A1, “ENVIRONMENTALLY FRIENDLY COMPOSITIONS FOR FOLIAR AND GRANULAR CONTROL OF WEEDS” (priority 2018, published 2020).

Key:
[1] = test system: Perennial Grass; experiment: Weedy turf test plots: perennial grass cover and turf stress after treatment; assay type: in vivo; conditions: for Perennial Grass 8 months: cover in weedy turf plots of Table 4, 8 months, B and N rates per treatment; for Perennial Grass 10 months: cover in weedy turf plots of Table 4, 10 months; for Perennial Grass 12 months: cover in weedy turf plots of Table 4, 12 months; for 8-12 month average grass cover: weedy turf plots of Table 4
Text: (§1) Then, multiple plots were installed in weedy turf for liquid boron fertilizer application. The plots listed in Table 4 were used for varying application rates of B1300 where the amount of liquid applied to each plot varied. The sprayer was weighed before and after each application and the application rate determined by calculation knowing the concentration of B1300 liquid applied. The results of foliar liquid applied in controlling invasive species is reported in FIG. 3 and compared to an untreated control. As presented in FIG. 3, the plots were monitored 1 month, 8 months and 10 months after four different application rates of liquid B1300 (47 pounds B/acre, 62 pounds B/acre, 75 pounds B/acre, and 93 pounds B/acre), which show the effectiveness of each rate in limiting the growth of invasive plant species. The weedy plants controlled included dandelion (Taraxacum officiniale), oxeye daisy (Chrysanthemum leucanthemum), black medic (Medicago lupulina), Canadian thistle (Circium arvense), and white clover (Trifolium repens). The desirable perennial grasses that were unharmed or stimulated included Kentucky bluegrass (Poa pratensis) and smooth brome (Bromus inermis). The effectiveness of relevant commercial products targeting control of invasive plant species are shown in FIG. 5C and include glyphosate, Natria FeHEDTA and 2-4 D.
(§2) Table 4 lists the tested plots with various treatment using granular and/or liquid boron formulations alone, or in combination with another micronutrient Cu and/or macronutrients including N, P, K. FIG. 3 and FIGS. 5A-5E represent phytotoxicity effect on weed control by investigating coverage after the desired treatments from the test plots listed in Table 4. Also, FIGS. 9A-9D to FIGS. 25A-25D present actual vegetation conditions of each plot after the desired treatment described in Table 4.
(§3) In this example the fertilizer was applied to weedy turf grass in September with approximately 50% invasive plant cover and then monitored again one, eight and ten months after initial application. At this North American field site snow covered the ground from approximately December through March. The weedy plants controlled included dandelion (Taraxacum officiniale), oxeye daisy (Chrysanthemum leucanthemum), black medic (Medicago lupulina), Canadian thistle (Circium arvense), and white clover (Trifolium repens). The desirable perennial grasses that were unharmed or stimulated included Kentucky bluegrass (Poa pratensis) and smooth brome (Bromus inermis).

[2] = test system: Forbs (Weeds); experiment: Weedy turf test plots: forb (weed) cover and weed control after treatment; assay type: in vivo; conditions: for control of invasive weeds, in words: Fall-treated turf plots of Table 4, 10-month study period, rate as in the label; for Forbs (Weeds) 8 months: cover in weedy turf plots of Table 4, 8 months; for Forbs (Weeds) 10 months: cover in weedy turf plots of Table 4, 10 months; for Forbs (Weeds) 12 months: cover in weedy turf plots of Table 4, 12 months; for 8-12 month average weed cover: weedy turf plots of Table 4
Text: as §1, with “the plots were monitored 1 month, 8 months and 10 months after four different application” left out
as §2
as §3, with “In this example the fertilizer was applied to weedy turf grass in September with approximately 50% invasive plant cover and then monitored again one, eight and ten months after initial application.” left out

[3] = test system: weedy turf; experiment: Weedy turf test plots: Vegetation Ranking Index; assay type: in vivo; conditions: healthy perennial grass cover x 3.5 minus 2.5 x stressed/unhealthy grass minus weed cover
Text: as §2

[4] = test system: selected grasses and forbs; conditions: greenhouse trials, Munshower and others (2006); cited from earlier work
[5] = test system: seed geranium; conditions: Lee et al. (1996), in combination with nitrogen, phosphorus, and potassium; cited from earlier work
[6] = test system: French marigold; conditions: Choi et al. (1996); cited from earlier work
[7] = test system: prostrate knotweed; experiment: Foliar spray on prostrate knotweed, compared with Roundup; assay type: in vivo, Polygonum aviculare
Text: In this example, liquid B1300 product was formulated by dissolving 1300 grams of 20.5% Boron (Solubor®) into 4 gallons of water for a foliar spray to target plants, either with or without ‘drizzle down’ of the liquid into the roots. Also, liquid B1440 product was formulated by dissolving 1440 grams of 20.5% Boron (Solubor®) into 4 gallons of water. Many invasive plants are controlled by B1300 foliar spray as presented in FIGS. 1A-1C or B1440 foliar spray as presented in FIGS. 2A-2C. Annual invasive plant species are easily controlled by phytotoxic nutrient addition since they have to grow from seed every year and have the least reliance on well—developed/extensive root systems and/or taproots that store plant resources. Annual invasive plants also have to grow from near the soil surface every year where it is easiest to add phytotoxic micronutrients and change the soil chemistry to inhibit or control the annual plant's growth. Perennial invasive plants grow every year from the previous years roots and take generally two forms: tap root species and extensive well-developed root systems. In general, it is difficult to control these invasive perennial plants compared to annual plants due to roots with plant resources deep in the soil. […]

[8] = test system: chlorophyllitic plants; conditions: as little as; cited from earlier work
[9] = test system: humans; conditions: 2005 carcinogen assessment guidelines; cited from earlier work

## O=C(O)COc1ccc(Cl)cc1Cl [2-4D (S), 2,4-Dichlorophenoxyacetic acid]
[1]
  Perennial Grass 8 months: 90%
  Perennial Grass 10 months: 85%
  Perennial Grass 12 months: 78%
  8-12 month average grass cover: 84%
[2]
  control of invasive weeds, in words: short-term treatment effect
  Forbs (Weeds) 8 months: 5%
  Forbs (Weeds) 10 months: 15%
  Forbs (Weeds) 12 months: 22%
  8-12 month average weed cover: 14%
[3]
  Vegetation Ranking Index: 13

## [B] [B, boron]
[4]
  solution concentration at which plants performed adequately: up to 40 mg B/L
[5]
  concentration of nutrient solution inducing toxicity symptoms: 500 µM
[6]
  concentration inducing micro-nutrient toxicity: 500 µM

## [Cu] [Cu, copper]
[5]
  concentration of nutrient solution inducing toxicity symptoms: 500 µM
[6]
  concentration inducing micro-nutrient toxicity: 4000 µM

## [Fe] [Fe, iron]
[5]
  concentration of nutrient solution inducing toxicity symptoms: 500 µM
[6]
  concentration inducing micro-nutrient toxicity: 4000 µM

## O=C(O)CNCP(=O)(O)O [Glyphosate (S), glyphosate]
[1]; Fall-treated turf plots of Table 4, 10-month study period, rate as in the label
  stress on perennial turf grasses, in words: has no perennial grasses
[1]
  Perennial Grass 8 months: 0%
  Perennial Grass 10 months: 0%
  Perennial Grass 12 months: 0%
  8-12 month average grass cover: 0%
[2]
  control of invasive weeds, in words: dominated by weeds by mid-summer
  Forbs (Weeds) 8 months: 10%
  Forbs (Weeds) 10 months: 95%
  Forbs (Weeds) 12 months: 90%
  8-12 month average weed cover: 65%
[2]; about 30 days after treatment
  effectiveness in treated turf plots: 100%
[2]; next year after treatment, pre-treatment ~50% weed cover
  weed cover: ~75%
[3]
  Vegetation Ranking Index: −133
[7]; along a gravel trail, FIG. 26D
  effectiveness on prostrate knotweed, in words: highly effective
[7]; plots put out 3 hours before a heavy rain (~1.0")
  effectiveness in rain affected test: highly effective
[8]
  application rate effective at causing photosynthetic disruption: 0.75 pounds active ingredient per acre

## [Mn+2] [Mn, manganese]
[5]
  concentration of nutrient solution inducing toxicity symptoms: 1000 µM
[6]
  concentration inducing micro-nutrient toxicity: 2000 µM

## [Mo] [Mo, molybdenum]
[5]
  concentration of nutrient solution inducing toxicity symptoms: 250 µM
[6]
  concentration inducing micro-nutrient toxicity: 1000 µM

## [Zn] [Zn, zinc]
[5]
  concentration of nutrient solution inducing toxicity symptoms: 500 µM
[6]
  concentration inducing micro-nutrient toxicity: 5000 µM

## OB(O)O [boric acid]
[9]
  U.S. EPA carcinogenicity classification: not likely to be carcinogenic to humans
